Reference: PubChem BioAssay AID2060609 (Molecular Pharmacology Branch, DTP, NCI, 2025)
pIC50: −log10 of the molar value.

Test system: 855422-203-R-J1-PDC complex spheroids, viability
Assay: Anticancer human tumor 855422-203-R-J1-PDC patient-derived bladder carcinoma cell line growth inhibition [CLK]
Details: for pIC50: curve of first compound; for viability, T/C: stronger effect = lower value; active = viability on the fitted dose curve at most 10% of control; inactive = the rest
Procedure, shortened: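 Patient-derived tumor cells grown as complex spheroids with HUVEC endothelial cells and mesenchymal stem cells, treated with drug combinations. Concentrations descend in half-log steps from near clinical Cmax, or from 10 microM if Cmax unknown.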

[1] = second compound 0.0316 µM, first compound 0.0316 µM
[2] = second compound 0.0316 µM, first compound 0.1 µM
[3] = second compound 0.1 µM, first compound 0.0316 µM
[4] = second compound 0.1 µM, first compound 0.1 µM
[5] = second compound 0.316 µM, first compound 0.0316 µM
[6] = second compound 0.316 µM, first compound 0.1 µM
[7] = second compound 1 µM, first compound 0.0316 µM
[8] = second compound 1 µM, first compound 0.1 µM
[9] = second compound 3.16 µM, first compound 0.0316 µM
[10] = second compound 3.16 µM, first compound 0.1 µM
[11] = second compound 10 µM, first compound 0.0316 µM
[12] = second compound 10 µM, first compound 0.1 µM
[13] = second compound 0.0316 µM, first compound 0.316 µM
[14] = second compound 0.0316 µM, first compound 1 µM
[15] = second compound 0.0316 µM, first compound 3.16 µM
[16] = second compound 0.0316 µM, first compound 10 µM
[17] = second compound 0.1 µM, first compound 0.316 µM
[18] = second compound 0.1 µM, first compound 1 µM
[19] = second compound 0.1 µM, first compound 3.16 µM
[20] = second compound 0.1 µM, first compound 10 µM
[21] = second compound 0.316 µM, first compound 0.316 µM
[22] = second compound 0.316 µM, first compound 1 µM
[23] = second compound 0.316 µM, first compound 3.16 µM
[24] = second compound 0.316 µM, first compound 10 µM
[25] = second compound 1 µM, first compound 0.316 µM
[26] = second compound 1 µM, first compound 1 µM
[27] = second compound 1 µM, first compound 3.16 µM
[28] = second compound 1 µM, first compound 10 µM
[29] = second compound 3.16 µM, first compound 0.316 µM
[30] = second compound 3.16 µM, first compound 1 µM
[31] = second compound 3.16 µM, first compound 3.16 µM
[32] = second compound 3.16 µM, first compound 10 µM
[33] = second compound 10 µM, first compound 0.316 µM
[34] = second compound 10 µM, first compound 1 µM
[35] = second compound 10 µM, first compound 3.16 µM
[36] = second compound 10 µM, first compound 10 µM
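Note: spheroids exposed to drugs for seven days before readout.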
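Throughout, for viability, T/C: 100% = DMSO vehicle control wells.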

Cn1ncnc1[C@H]1c2n[nH]c(=O)c3cc(F)cc(c23)N[C@@H]1c1ccc(F)cc1 + CNC(=O)c1ccc(Nc2nc(OC3CCCC3)c3c(-c4ccc5nc(C)oc5c4)c[nH]c3n2)c(OC)c1
> 9.50: pIC50 (second compound 0.316 µM) | pIC50 (second compound 1 µM) | pIC50 (second compound 3.16 µM) | pIC50 (second compound 10 µM)
7.44: pIC50 (second compound 0.1 µM)
inactive: viability, T/C (second compound 0.0316 µM, first compound 0.000316 µM) 118% | viability, T/C (second compound 0.0316 µM, first compound 0.001 µM) 102% | viability, T/C (second compound 0.0316 µM, first compound 0.00316 µM) 126% | viability, T/C (second compound 0.0316 µM, first compound 0.01 µM) 109% | viability, T/C [1] 102% | viability, T/C [2] 110% | viability, T/C (second compound 0.1 µM, first compound 0.000316 µM) 57.1% | viability, T/C (second compound 0.1 µM, first compound 0.001 µM) 59.4% | viability, T/C (second compound 0.1 µM, first compound 0.00316 µM) 45.4% | viability, T/C (second compound 0.1 µM, first compound 0.01 µM) 66.2% | viability, T/C [3] 43.5% | viability, T/C [4] 47.3% | viability, T/C (second compound 0.316 µM, first compound 0.000316 µM) 19.1% | viability, T/C (second compound 0.316 µM, first compound 0.001 µM) 22.2% | viability, T/C (second compound 0.316 µM, first compound 0.00316 µM) 20.5% | viability, T/C (second compound 0.316 µM, first compound 0.01 µM) 24.7% | viability, T/C [5] 24.2% | viability, T/C [6] 21.5% | viability, T/C (second compound 1 µM, first compound 0.000316 µM) 21% | viability, T/C (second compound 1 µM, first compound 0.001 µM) 17.4% | viability, T/C (second compound 1 µM, first compound 0.00316 µM) 18% | viability, T/C (second compound 1 µM, first compound 0.01 µM) 18.8% | viability, T/C [7] 18.4% | viability, T/C [8] 18.2% | viability, T/C (second compound 3.16 µM, first compound 0.000316 µM) 17.9% | viability, T/C (second compound 3.16 µM, first compound 0.001 µM) 17.6% | viability, T/C (second compound 3.16 µM, first compound 0.00316 µM) 22.1% | viability, T/C (second compound 3.16 µM, first compound 0.01 µM) 18.5% | viability, T/C [9] 21.7% | viability, T/C [10] 19.3% | viability, T/C (second compound 10 µM, first compound 0.000316 µM) 20.3% | viability, T/C (second compound 10 µM, first compound 0.001 µM) 21.9% | viability, T/C (second compound 10 µM, first compound 0.00316 µM) 19.2% | viability, T/C (second compound 10 µM, first compound 0.01 µM) 22% | viability, T/C [11] 18% | viability, T/C [12] 15.5%
< 7.00: pIC50 (second compound 0.0316 µM)

Nc1ccn(C2OC(CO)C(O)C2(F)F)c(=O)n1 (stereo unspecified) + CNC(=O)c1ccc(Nc2nc(OC3CCCC3)c3c(-c4ccc5nc(C)oc5c4)c[nH]c3n2)c(OC)c1
> 7.50: pIC50 (second compound 0.0316 µM) | pIC50 (second compound 0.1 µM) | pIC50 (second compound 0.316 µM) | pIC50 (second compound 1 µM) | pIC50 (second compound 3.16 µM) | pIC50 (second compound 10 µM)
inactive: viability, T/C [1] 26.9% | viability, T/C [2] 13.1% | viability, T/C [13] 13% | viability, T/C [3] 17.3% | viability, T/C [4] 12.1% | viability, T/C [17] 12.5% | viability, T/C [5] 17.4% | viability, T/C [6] 12.8% | viability, T/C [21] 12% | viability, T/C [7] 18.6% | viability, T/C [8] 21.8% | viability, T/C [25] 12.8% | viability, T/C [26] 10.1% | viability, T/C [9] 19.4% | viability, T/C [10] 16.6% | viability, T/C [29] 14.9% | viability, T/C [30] 10.2% | viability, T/C [11] 19.3% | viability, T/C [12] 16.4% | viability, T/C [33] 14.1% | viability, T/C [34] 9.84%
active: viability, T/C [14] 8.48% | viability, T/C [15] 8.78% | viability, T/C [16] 6.08% | viability, T/C [18] 11.8% | viability, T/C [19] 7.27% | viability, T/C [20] 5.69% | viability, T/C [22] 10.3% | viability, T/C [23] 5.76% | viability, T/C [24] 5.3% | viability, T/C [27] 9.02% | viability, T/C [28] 6.99% | viability, T/C [31] 8.27% | viability, T/C [32] 6.69% | viability, T/C [35] 10.5% | viability, T/C [36] 5.99%

O=C(c1cc(Cc2n[nH]c(=O)c3ccccc23)ccc1F)N1CCN(C(=O)C2CC2)CC1 + CNC(=O)c1ccc(Nc2nc(OC3CCCC3)c3c(-c4ccc5nc(C)oc5c4)c[nH]c3n2)c(OC)c1
> 7.50: pIC50 (second compound 0.316 µM) | pIC50 (second compound 1 µM) | pIC50 (second compound 3.16 µM) | pIC50 (second compound 10 µM)
inactive: viability, T/C [1] 117% | viability, T/C [2] 100% | viability, T/C [13] 111% | viability, T/C [14] 98.1% | viability, T/C [15] 112% | viability, T/C [16] 82.5% | viability, T/C [3] 58.6% | viability, T/C [4] 69.4% | viability, T/C [17] 63.6% | viability, T/C [18] 47.4% | viability, T/C [19] 57.2% | viability, T/C [20] 45.1% | viability, T/C [5] 20.3% | viability, T/C [6] 21.5% | viability, T/C [21] 21.1% | viability, T/C [22] 23.7% | viability, T/C [23] 21.9% | viability, T/C [24] 23.8% | viability, T/C [7] 24.4% | viability, T/C [8] 21.6% | viability, T/C [25] 21.1% | viability, T/C [26] 28.1% | viability, T/C [27] 22.1% | viability, T/C [28] 18.5% | viability, T/C [9] 23.3% | viability, T/C [10] 22.3% | viability, T/C [29] 21.6% | viability, T/C [30] 19.9% | viability, T/C [31] 21.3% | viability, T/C [32] 23.4% | viability, T/C [11] 18.5% | viability, T/C [12] 18% | viability, T/C [33] 17.9% | viability, T/C [34] 20% | viability, T/C [35] 19.9% | viability, T/C [36] 19.5%
< 5.00: pIC50 (second compound 0.0316 µM)
5.32: pIC50 (second compound 0.1 µM)
